{"source": "paper PMC12186255", "about": "“Discovery and Characterization of Small Molecule Inhibitors Targeting Exonuclease 1 for Homologous Recombination-Deficient Cancer Therapy” (ACS Chemical Biology, 2025)", "key": {"EXO1 D225A": {"biological_target": "T1, EXO1 D225A (Homo sapiens, UniProt Q9UQ84, D225A)", "T1 construct": "The N-terminal domain of human EXO1 (hEXO1) (residues 1–345) was cloned into the pET28b vector; made in house; host or cells: E. coli BL21(DE3) and Rosetta 2(DE3)", "T1 sequence (Q9UQ84 1-345 D225A)": "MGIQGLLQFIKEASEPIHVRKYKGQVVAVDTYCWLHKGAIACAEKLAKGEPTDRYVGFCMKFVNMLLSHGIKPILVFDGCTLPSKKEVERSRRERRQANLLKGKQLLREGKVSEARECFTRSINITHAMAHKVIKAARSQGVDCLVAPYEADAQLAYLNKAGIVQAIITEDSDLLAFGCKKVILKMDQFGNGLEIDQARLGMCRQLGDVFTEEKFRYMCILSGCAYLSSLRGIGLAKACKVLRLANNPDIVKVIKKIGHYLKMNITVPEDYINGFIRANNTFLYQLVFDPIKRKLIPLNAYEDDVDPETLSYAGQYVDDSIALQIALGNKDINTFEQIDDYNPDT", "experiment": "In vitro exonuclease activity of mutant with inhibitors", "assay_type": "biochemical", "conditions": "EXO1 25 nM, DNA substrate 250 nM; C200 0-5 μM", "experimental": "(§1) Simultaneously, we tested the effect of each point mutation on the in vitro exonuclease activity. Most mutations in site 1 result in some loss of enzymatic activity compared to WT EXO1 (Figure S13; WT:Figure S13a), particularly K85A and D225A (Figure S13b,f). […] However, at concentrations of 20 and 40 μM, the mutants (K85A and R92A) behaved more like WT (Figure b).\n(§2) In both panels a and b, DMSO without inhibitors was used as a control, and its relative binding activity was set equal to 1.0. The EXO1 enzyme concentration was 25 nM, and the DNA substrate concentration was 250 nM. The values shown are the mean ± S.D. of three independent experiments.\n(§3) The N-terminal domain of human EXO1 (hEXO1) (residues 1–345) was cloned into the pET28b vector. The following mutations were introduced via site-directed mutagenesis based on the findings of molecular docking analysis: K85A, E89A, R92A, I125A, D225A, K292A, and K294A (oligonucleotide primers listed in Table S1) following the established protocol."}, "EXO1 E89A": {"biological_target": "T2, EXO1 E89A (Homo sapiens, UniProt Q9UQ84, E89A)", "T2 construct": "The N-terminal domain of human EXO1 (hEXO1) (residues 1–345) was cloned into the pET28b vector; made in house; host or cells: E. coli BL21(DE3) and Rosetta 2(DE3)", "T2 sequence (Q9UQ84 1-345 E89A)": "as the sequence (Q9UQ84 1-345 D225A) above, with E89A, A225D counted along it", "experiment": "In vitro exonuclease activity of mutant with inhibitors", "assay_type": "biochemical", "conditions": "EXO1 25 nM, DNA substrate 250 nM", "experimental": "as §1, §2, §3"}, "EXO1 I125A": {"biological_target": "T3, EXO1 I125A (Homo sapiens, UniProt Q9UQ84, I125A)", "T3 construct": "The N-terminal domain of human EXO1 (hEXO1) (residues 1–345) was cloned into the pET28b vector; made in house; host or cells: E. coli BL21(DE3) and Rosetta 2(DE3)", "T3 sequence (Q9UQ84 1-345 I125A)": "as the sequence (Q9UQ84 1-345 D225A) above, with I125A, A225D counted along it", "experiment": "In vitro exonuclease activity of mutant with inhibitors", "assay_type": "biochemical", "conditions": "EXO1 25 nM, DNA substrate 250 nM", "experimental": "as §1, §2, §3"}, "MDA-MB-436 cells": {"test_system": "MDA-MB-436 cells", "experiment": "γ-H2AX immunofluorescence and Western blot (DSB burden)", "assay_type": "cell-based, human", "conditions": "MDA-MB-436 parental (BRCA1-deficient) cells, 10 or 50 μM, overnight/24 h", "experimental": "(b) Quantification of the relative γ-H2AX per nucleus from panel a. […] The intensity of the γ-H2AX bands correlates with the level of DSBs observed in the immunofluorescence images in panel a. […] Strong γ-H2AX foci are observed, indicating an increased burden of DSBs. […] (e) Quantification of the relative γ-H2AX per nucleus is depicted in panel d. […] The intensity of the γ-H2AX bands correlates with the level of DSBs observed in the immunofluorescence images in panel d.\nCells were seeded at a density of 3× 10^5 cells per well in 12-well plates with preplaced coverslips and treated with or without various inhibitor treatments overnight. Cells were then incubated with EdU for 30 min before collection. For PARylation analysis, cells were permeabilized with 0.1% Triton X100, fixed with 4% paraformaldehyde, blocked with the Image-iT FX signal enhancer (Invitrogen), and incubated (1.5 h, RT) with the indicated primary antibodies (PAR/pADPr Antibody; Biotechne). […] The slides were then washed with the PBS buffer, counterstained with DAPI, and analyzed with a fluorescence microscope (Zeiss Observer Z1). […] The slides were then washed with the PBS buffer, incubated with the Click-iT reaction mix for EdU as aforementioned, counterstained with DAPI, and analyzed with a fluorescence microscope (Zeiss Observer Z1)."}, "DU145 (B3)": {"test_system": "DU145 (B3)", "experiment": "Cell line drug profiling, CellTiter Glo", "assay_type": "cell-based", "conditions": "Homo sapiens, DU-145, Prostate, 72 h", "experimental": "(§4) We tested the cytotoxicity of representative compounds from the seven EXO1i scaffolds against a subset of the NCI-60 cell line panel along with three additional pancreatic cell lines (FG, AsPC1, and CaPan2). In general, cells were seeded in 384-well tissue culture-treated plates overnight and treated with various concentrations of each hit compound (a serial 3-fold dilution from 50 μM for all tested hits). Each concentration was performed in duplicate. Cell viability was then measured by CellTiter Glo (Promega) after 72 h of treatment."}, "OVCAR-4": {"test_system": "OVCAR-4", "experiment": "Cell line drug profiling, CellTiter Glo", "assay_type": "cell-based", "conditions": "Homo sapiens; OVCAR-4, Ovarian, 72 h", "experimental": "as §4"}, "OVCAR-8": {"test_system": "OVCAR-8", "experiment": "Cell line drug profiling, CellTiter Glo", "assay_type": "cell-based", "conditions": "Homo sapiens; OVCAR-8, Ovarian, 72 h", "experimental": "as §4"}, "T-47D": {"test_system": "T-47D", "experiment": "Cell line drug profiling, CellTiter Glo", "assay_type": "cell-based", "conditions": "Homo sapiens, T47D, Breast, 72 h", "experimental": "as §4"}, "MDA-MB-468": {"test_system": "MDA-MB-468", "experiment": "Cell line drug profiling, CellTiter Glo", "assay_type": "cell-based, human", "conditions": "Homo sapiens, MDA-MB-468, 72 h", "experimental": "as §4"}, "[1]": {"test_system": "MDA-MB-436 (BRCA1−) and MDA-MB-436 (BRCA1+) cells", "experiment": "Annexin V apoptosis assay", "assay_type": "cell-based, human", "conditions": "5 days of treatment", "experimental": "After 24 h of incubation, testing compounds were added to cells at final concentrations of 50, 25, 12, and 5 μM using the Echo Liquid Handler (Beckman). Subsequently, 10 μL of the NIR-labeled Annexin V apoptosis reagent (Cat. #4768, Sartorius, Germany) was added to each well at a 1:200 final dilution. The plates were then transferred to the Incucyte Live-Cell Analysis System for real-time apoptosis monitoring over a 5 day period. Imaging was conducted using a 10× objective with phase-contrast and near-infrared (NIR) fluorescent channels, capturing scans every 2 h. Image analysis was performed with the Incucyte software, and the total NIR fluorescence intensity was quantified to evaluate the apoptosis."}, "[2]": {"test_system": "MDA-MB-436 (BRCA1+) tumors", "experiment": "In vivo tumor growth assay, xenograft", "parameters": "species or system mouse", "conditions": "p = 0.64", "experimental": "(§5) The tumor growth rate of human breast cancer cells with or without treatment with EXO1i was evaluated by using a xenograft breast cancer mouse model. […] The tumor volume in each mouse was measured twice a week and calculated using the formula (length × width × width)/2 (mm^3). When the tumors reached a volume of 1000 mm^3, the mice were euthanized. Animal studies were conducted in accordance with an approved protocol adhering to the IACUC policies and procedures of the City of Hope."}, "[3]": {"test_system": "MDA-MB-436 (BRCA1−) tumors", "experiment": "In vivo tumor growth assay, xenograft", "parameters": "species or system mouse", "conditions": "p = 0.018", "experimental": "as §5"}, "[4]": {"conditions": "8.5 mg/kg daily intraperitoneal"}}, "note": "“Also recorded” adds a separate entry of the source."}
{"smiles": "COC(=O)c1nc(-c2ccc(OC)cc2)nc(O)c1O", "note": "[C200]", "values": [{"measurement": "inhibitory activity against EXO1 D225A mutant vs WT", "setting": "EXO1 D225A", "value": "partially lost its inhibitory effect; also recorded: abolished"}, {"measurement": "inhibitory activity against EXO1 E89A mutant vs WT", "setting": "EXO1 E89A", "value": "did not have a significant"}, {"measurement": "inhibitory activity against EXO1 I125A mutant vs WT", "setting": "EXO1 I125A", "value": "did not have a significant"}, {"measurement": "γ-H2AX levels (unresolved DSBs)", "setting": "MDA-MB-436 cells", "value": "no effect"}, {"measurement": "IC50", "setting": "DU145 (B3)", "value": "> 50", "unit": "µM"}, {"measurement": "IC50", "setting": "OVCAR-4", "value": "> 50", "unit": "µM"}, {"measurement": "IC50", "setting": "OVCAR-8", "value": "> 50", "unit": "µM"}, {"measurement": "IC50", "setting": "T-47D", "value": "> 50", "unit": "µM"}, {"measurement": "IC50", "setting": "MDA-MB-468", "value": "> 50", "unit": "µM"}]}
{"smiles": "Cc1cccc(N2CCN(c3ccc(NS(=O)(=O)c4ccccc4)c(C(=O)O)c3)CC2)c1C", "note": "[F684]", "values": [{"measurement": "γ-H2AX levels (unresolved DSBs)", "setting": "MDA-MB-436 cells", "value": "significant increase"}, {"measurement": "apoptosis (Annexin V fluorescence intensity), BRCA1− vs BRCA1+", "setting": "[1]", "value": "substantially stronger killing effect in a BRCA1– context"}, {"measurement": "average growth rate of BRCA1+ tumors", "setting": "[2]; 8.5 mg/kg body weight/day intraperitoneal, NSG mice, vehicle 16.6", "value": 15.1, "unit": "%/day"}, {"measurement": "tumor volumes compared with vehicle, BRCA1+ tumors", "setting": "[2]; [4]", "value": "no effect"}, {"measurement": "average growth rate of BRCA1– tumors", "setting": "[3]; 8.5 mg/kg body weight/day intraperitoneal, NSG mice, vehicle […]", "value": 11.3, "unit": "%/day"}, {"measurement": "tumor volumes compared with vehicle, BRCA1- mouse models", "setting": "[3]; [4]", "value": "significantly reduced tumor volumes"}, {"measurement": "IC50", "setting": "MDA-MB-468", "value": 23.6, "unit": "µM"}]}
